# Laboratory results: patent publication US12161630B2, “Methods to control infection using new generation small molecule growth inhibitors” (priority 2017, dated 2024)
# Tests used:
# [1] = system: biofilm-protected S. typhimurium WT; assay: MBEC-HTP assay on biofilm-protected S. typhimurium; type: cell-based, Salmonella enterica subsp. enterica serovar Typhimurium LT2; settings: 18 hrs incubation, 0.2×MBC to 4×MBC
# Procedure: Antimicrobial susceptibility testing on biofilm-protected S. typhimurium using the MBEC™-HTP assay: The antimicrobial efficacy of the four SMs was tested once the S. Typhimurium WT was protected by the […] biofilm matrix. The experiment was performed as described by the manufacturer (innovotech.ca/MBEC_HTPInstructions_Rev1.pdf). Briefly, 150 μl of an overnight suspension of S. typhimurium WT normalized at 0.05 OD600 in LB medium was transferred into each well of a sterile, non-treated, flat bottom 96-wells plate. The plate was covered using the lid containing the pegs (innovotech; 19111), sealed with parafilm, and incubated for 36 hrs at 37° C. […] The plate was incubated for 18 hrs at 37° C., 110 rpm in the dark. After incubation, the lid was transferred into a new 96-wells plate containing 200 μl of sterile water and sonicated for 60 min at room temperature (Aquasonic model 50HT, VWR). Then the supernatant was ten-fold serial diluted, plated in agar plate, and incubated at 37° C. for 36 hrs. The lowest SM concentration giving a complete clearance was considered as the minimum biofilm eradication concentration (MBEC).
# [2] = system: B. thetaiolaomicron; assay: Activity spectrum at 200 μM, B. thetaiotaomicron; type: cell-based
# Procedure: (§1) SM activity spectrum: The 128 selected SMs were tested for antimicrobial effects on nine different serotypes frequently implicated in foodborne gastroenteritis outbreaks. Later in the study, the four best SMs were tested against twelve beneficial/commensal gut bacteria. Both screens were performed at 200 μM as described in the primary screening. Growth conditions for each strain are described in Table 1.
# [3] = system: B. adolescentis; assay: Activity spectrum at 200 μM, B. adolescentis; type: cell-based, Bifidobacterium adolescentis
# Procedure: as §1
# [4] = system: B. longum; assay: Activity spectrum at 200 μM, B. longum; type: cell-based, Bifidobacterium longum
# Procedure: as §1
# [5] = system: E. faecalis; assay: Activity spectrum at 200 μM, E. faecalis; type: cell-based, Enterococcus faecalis
# Procedure: as §1
# [6] = system: L. brevis; assay: Activity spectrum at 200 μM, L. brevis; type: cell-based, Lactobacillus brevis
# Procedure: as §1
# [7] = system: L. rhamnosus GG; assay: Activity spectrum at 200 μM, L. rhamnosus GG; type: cell-based, Lactobacillus rhamnosus
# Procedure: as §1
# [8] = system: PhoP regulon in S. typhimurium; settings: four HTS, PubChem AID #1863, #1981, #2253, #2401; cited from earlier work
# [9] = system: C. clostridioforme; assay: Activity spectrum at 200 μM, C. clostridioforme; type: cell-based, Clostridium clostridioforme
# Procedure: as §1
# [10] = system: C. jejuni 81-176; assay: Activity on avian pathogens at 200 μM, C. jejuni; type: cell-based, Campylobacter jejuni
# Procedure: (§2) FIGS. 1(A-E). Selection of potent Salmonella growth inhibitors. FIG. 1A: High-throughput screening of 4182 SMs against S. typhimurium WT at 200 μM. Negative value: growth inhibition; Positive value: growth stimulation compared to S. typhimurium growth not treated. The black line represents growth inhibition caused by 2% DMSO. FIG. 1B: Activity of 19 S. typhimurium growth inhibitors against additional Salmonella serotypes. Light grey cells: total growth inhibition; dark grey cells: bacterial growth observed; black cells: not determined. FIG. 1C: Dose-response assays of the selected 19 SMs against S. typhimurium WT. […] The black line represents a cut off of nine serotypes killed per SM. FIG. 1E: Activity spectra of the selected four SMs at 200 μM each on several avian-pathogens (Campylobacter jejuni, Escherichia coli APEC, and Mycoplasma gallisepticum) and beneficial gut bacteria (remaining species). E. coli APEC refers to Avian Pathogenic E. coli and includes E. coli O1, O2, O8, O15, O18, O35, O78, O109, and O115. Light grey cells: cidal effect; dark grey cells: bacterial growth observed. Left side: phylogenetic tree based on NCBI taxonomic ID built with PhyloT software.
# (§3) The selected four SMs were tested on twelve beneficial-commensal gut bacteria at 200 μM (FIG. 1E). […] These four SMs were also growth inhibitors of other avian pathogens at 200 μM (unpublished data, FIG. 1E). […]
# [11] = system: S. typhimurium WT internalized in HD11 cells; assay: S. typhimurium intracellular survival in infected HD11 cells; type: cell-based; settings: Salmonella enterica
# Procedure: (§4) Effect of the four SMs on S. typhimurium intracellular survival in cells lines: The ability of four SMs to clear S. typhimurium WT […] was evaluated using three cell lines (Caco-2 cells, HD11, and THP-1 cells). The Salmonella intracellular survival as assessed as described (13). A multiplicity of infection “MOI” of 10 was used. Infected cells were treated with 1 μl of SMs (final concentration ranged between 100 μM and 6.25 μM) at 37° C. for 24 hrs in humidified, 5% CO2 incubator. Following incubation, cells were washed once with 150 μl of 1×PBS, lysed with 0.1% Triton-100X, serial ten-fold diluted in 1×PBS, and plated on agar plate. Plates were incubated at 37° C. for 24 hrs to determine the intracellular survival. Cells not infected and not treated, and cells infected and treated with 2% DMSO were used as controls.
# [12] = system: Avian Pathogenic E. coli (O1, O2, O8, O15, O18, O35, O78, O109, and O115); assay: Activity on avian pathogens at 200 μM, Avian Pathogenic E. coli; type: cell-based, Escherichia coli
# Procedure: as §2, §3
# [13] = system: internalized Salmonella in Caco-2, HD11 and THP-1 cells; assay: S. typhimurium clearance in infected cell lines, summary over the three cell lines; type: cell-based; settings: over the three cell lines (Caco-2, HD11, THP-1)
# Procedure: as §4
compound,measurement,setting,value
"CCOc1cc(/C=N/N=C(N)N)ccc1OCc1ccc(Cl)cc1 [SM5, N″-{4-[(4-chlorobenzyl)oxy]-3-ethoxybenzylidene}carbonohydrazonic diamide]",concentration killing biofilm-protected Salmonella,[1],0.4 ×MBC
same,growth effect on B. thetaiolaomicron,[2],no effect
same,growth effect on B. adolescentis,[3],no effect
same,growth effect on B. longum,[4],no effect
same,growth effect on E. faecalis,[5],no effect
same,growth effect on L. brevis,[6],no effect
same,growth effect on L. rhamnosus GG,[7],no effect
same,inhibition of the PhoP regulon in S. typhimurium,[8],direct or indirect inhibitor
"CC1CCC(C(C)C)C(OC(=O)Cn2c[n+](CC(=O)OC3CC(C)CCC3C(C)C)c3ccccc32)C1.[Cl-] (centres unmarked) [SM1, 1,3-bis{2-[(2-isopropyl-5-methylcyclohexyl)oxy]-2-oxoethyl}-1H-3,1-benzimidazol-3-ium chloride]",growth effect on C. clostridioforme,[9],no growth inhibition effect
same,effect against C. jejuni 81-176,[10],bactericidal effects
same,IC50,"[11]; TYPHIMURIUM, HD11, read-out: IC 50% (μm), HD11 cells",< 6.25 µM
same,MBC,"[11]; S. Typhimurium-infected HD11 cells, 24 hrs treatment",12.5 µM
"CCCCCCCCCCCCCCCCn1c[n+](C)c2ccccc21.[Br-] [SM4, 1-hexadecyl-3-methyl-1H-3,1-benzimidazol-3-ium bromide]",concentration killing biofilm-protected Salmonella,[1],0.6 ×MBC
same,effect against Avian Pathogenic E. coli,[12],lethal
same,concentration clearing internalized Salmonella,[13],25 µM
"CCCCCCCCCCCCCCCC[n+]1ccn(CC#N)c1.[Cl-] [SM3, 1-(cyanomethyl)-3-hexadecyl-1H-imidazol-3-ium chloride]",effect against Avian Pathogenic E. coli,[12],lethal
same,concentration clearing internalized Salmonella,[13],50 µM
